Key:
Experiment in all cases: Kinase selectivity: percentage inhibition of each specific kinase at 1 μM inhibitor concentration
Assay type in all cases: biochemical
[1] = molecular target: each specific kinase (kinase selectivity panel, Table 2) (Homo sapiens, UniProt O43318); details: TAK1
Procedure: (§1) Values are expressed as percentage inhibition of the each specific kinase at 1 μM inhibitor concentration.

[2] = molecular target: each specific kinase (kinase selectivity panel, Table 2) (Homo sapiens, UniProt O60674); details: JAK2
Procedure: as §1

[3] = molecular target: each specific kinase (kinase selectivity panel, Table 2) (Homo sapiens, UniProt Q9NWZ3); details: IRAK4
Procedure: as §1

[4] = molecular target: each specific kinase (kinase selectivity panel, Table 2) (Homo sapiens, UniProt O96013); details: PAK4
Chain of each specific kinase (kinase selectivity panel, Table 2) (Homo sapiens, UniProt O96013) (O96013 whole entry): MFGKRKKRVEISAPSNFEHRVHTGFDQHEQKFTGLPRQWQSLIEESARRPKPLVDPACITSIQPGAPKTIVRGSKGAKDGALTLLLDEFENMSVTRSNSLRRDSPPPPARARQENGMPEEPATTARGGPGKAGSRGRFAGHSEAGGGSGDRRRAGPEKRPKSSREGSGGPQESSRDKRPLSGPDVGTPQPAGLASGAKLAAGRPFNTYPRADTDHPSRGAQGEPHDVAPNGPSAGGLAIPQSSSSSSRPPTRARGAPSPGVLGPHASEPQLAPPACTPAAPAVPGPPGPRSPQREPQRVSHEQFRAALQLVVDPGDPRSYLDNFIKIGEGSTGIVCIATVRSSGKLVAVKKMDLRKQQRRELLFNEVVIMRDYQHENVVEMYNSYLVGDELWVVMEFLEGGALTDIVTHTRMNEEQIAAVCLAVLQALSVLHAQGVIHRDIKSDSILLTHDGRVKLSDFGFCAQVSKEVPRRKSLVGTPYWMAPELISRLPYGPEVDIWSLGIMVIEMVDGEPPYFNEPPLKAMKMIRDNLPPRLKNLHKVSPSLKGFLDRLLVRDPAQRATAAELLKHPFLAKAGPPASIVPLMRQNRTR
Procedure: as §1

[5] = molecular target: each specific kinase (kinase selectivity panel, Table 2) (Homo sapiens, UniProt P06213); details: IR
Procedure: as §1

[6] = molecular target: each specific kinase (kinase selectivity panel, Table 2) (Homo sapiens, UniProt Q9H2X6); details: HIPK2
Chain of each specific kinase (kinase selectivity panel, Table 2) (Homo sapiens, UniProt Q9H2X6) (Q9H2X6 whole entry): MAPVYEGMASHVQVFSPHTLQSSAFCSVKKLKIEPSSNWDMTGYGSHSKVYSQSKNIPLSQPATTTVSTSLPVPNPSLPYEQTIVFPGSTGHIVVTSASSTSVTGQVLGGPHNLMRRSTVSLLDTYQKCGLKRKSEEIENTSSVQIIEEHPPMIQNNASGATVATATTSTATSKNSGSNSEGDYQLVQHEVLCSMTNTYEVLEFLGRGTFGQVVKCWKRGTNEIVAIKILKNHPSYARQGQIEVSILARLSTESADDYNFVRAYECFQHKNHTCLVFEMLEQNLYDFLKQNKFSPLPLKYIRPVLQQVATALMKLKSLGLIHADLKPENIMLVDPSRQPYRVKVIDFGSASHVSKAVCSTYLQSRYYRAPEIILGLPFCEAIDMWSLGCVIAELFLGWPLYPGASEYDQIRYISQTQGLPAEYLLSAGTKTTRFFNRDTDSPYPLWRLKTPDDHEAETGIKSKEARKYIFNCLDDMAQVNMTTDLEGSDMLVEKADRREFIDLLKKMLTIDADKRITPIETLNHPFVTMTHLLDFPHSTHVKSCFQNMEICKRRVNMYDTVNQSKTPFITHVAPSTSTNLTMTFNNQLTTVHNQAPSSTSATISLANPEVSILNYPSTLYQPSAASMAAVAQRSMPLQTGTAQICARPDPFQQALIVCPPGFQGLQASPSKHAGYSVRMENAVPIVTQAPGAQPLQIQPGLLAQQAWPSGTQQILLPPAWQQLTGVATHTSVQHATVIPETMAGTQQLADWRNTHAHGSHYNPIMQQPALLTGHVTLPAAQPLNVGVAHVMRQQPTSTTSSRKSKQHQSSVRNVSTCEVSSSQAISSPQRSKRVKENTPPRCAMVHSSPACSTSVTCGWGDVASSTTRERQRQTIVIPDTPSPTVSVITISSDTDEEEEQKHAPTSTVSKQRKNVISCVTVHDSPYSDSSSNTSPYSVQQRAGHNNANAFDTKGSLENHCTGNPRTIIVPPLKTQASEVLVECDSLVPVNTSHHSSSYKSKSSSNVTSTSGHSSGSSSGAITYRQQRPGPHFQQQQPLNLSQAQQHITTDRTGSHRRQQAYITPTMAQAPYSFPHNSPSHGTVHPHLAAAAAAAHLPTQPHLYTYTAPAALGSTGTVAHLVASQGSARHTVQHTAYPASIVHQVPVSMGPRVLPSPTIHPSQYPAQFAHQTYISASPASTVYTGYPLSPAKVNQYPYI
Procedure: as §1

[7] = molecular target: each specific kinase (kinase selectivity panel, Table 2) (Homo sapiens, UniProt P80192); details: MLK1
Chain of each specific kinase (kinase selectivity panel, Table 2) (Homo sapiens, UniProt P80192) (P80192 whole entry): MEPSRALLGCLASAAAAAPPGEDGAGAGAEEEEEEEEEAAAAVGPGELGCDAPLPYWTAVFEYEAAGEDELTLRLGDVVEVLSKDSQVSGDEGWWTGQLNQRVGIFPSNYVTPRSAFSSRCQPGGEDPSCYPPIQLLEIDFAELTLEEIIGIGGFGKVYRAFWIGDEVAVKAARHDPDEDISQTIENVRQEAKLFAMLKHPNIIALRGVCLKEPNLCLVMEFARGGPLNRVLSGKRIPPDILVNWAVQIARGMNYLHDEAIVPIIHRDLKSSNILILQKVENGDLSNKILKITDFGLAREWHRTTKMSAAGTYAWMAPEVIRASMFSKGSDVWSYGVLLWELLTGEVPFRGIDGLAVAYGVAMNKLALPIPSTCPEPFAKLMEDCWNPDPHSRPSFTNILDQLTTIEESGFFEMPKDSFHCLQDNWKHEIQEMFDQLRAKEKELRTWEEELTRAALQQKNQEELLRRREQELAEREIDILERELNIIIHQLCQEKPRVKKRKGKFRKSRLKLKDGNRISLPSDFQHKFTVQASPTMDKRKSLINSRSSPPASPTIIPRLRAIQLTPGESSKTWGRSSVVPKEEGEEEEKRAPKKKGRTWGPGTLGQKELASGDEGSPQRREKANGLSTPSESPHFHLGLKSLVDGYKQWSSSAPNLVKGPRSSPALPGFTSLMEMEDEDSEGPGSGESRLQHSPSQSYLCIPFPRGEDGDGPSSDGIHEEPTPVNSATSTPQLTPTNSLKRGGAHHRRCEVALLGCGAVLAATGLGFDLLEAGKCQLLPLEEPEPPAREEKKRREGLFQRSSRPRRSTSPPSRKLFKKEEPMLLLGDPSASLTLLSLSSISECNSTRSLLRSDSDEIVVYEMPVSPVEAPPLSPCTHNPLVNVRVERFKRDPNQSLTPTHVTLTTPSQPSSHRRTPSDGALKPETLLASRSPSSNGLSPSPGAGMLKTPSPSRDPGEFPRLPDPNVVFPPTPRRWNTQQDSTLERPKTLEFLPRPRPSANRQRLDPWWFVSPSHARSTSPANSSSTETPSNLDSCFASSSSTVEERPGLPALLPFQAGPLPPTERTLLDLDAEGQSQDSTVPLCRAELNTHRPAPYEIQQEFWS
Procedure: as §1

[8] = molecular target: each specific kinase (kinase selectivity panel, Table 2) (Homo sapiens, UniProt P12931); details: Src
Procedure: as §1

[9] = molecular target: each specific kinase (kinase selectivity panel, Table 2) (Homo sapiens, UniProt P04629); details: TrkA
Procedure: as §1

[10] = molecular target: each specific kinase (kinase selectivity panel, Table 2) (Homo sapiens, UniProt P14616); details: IRR
Procedure: as §1

[11] = molecular target: each specific kinase (kinase selectivity panel, Table 2) (Homo sapiens, UniProt Q13188); details: MST2
Procedure: as §1

[12] = molecular target: each specific kinase (kinase selectivity panel, Table 2) (Homo sapiens, UniProt Q14680); details: MELK
Procedure: as §1

[13] = molecular target: each specific kinase (kinase selectivity panel, Table 2) (Homo sapiens, UniProt O96017); details: CHK2
Chain of each specific kinase (kinase selectivity panel, Table 2) (Homo sapiens, UniProt O96017) (O96017 whole entry): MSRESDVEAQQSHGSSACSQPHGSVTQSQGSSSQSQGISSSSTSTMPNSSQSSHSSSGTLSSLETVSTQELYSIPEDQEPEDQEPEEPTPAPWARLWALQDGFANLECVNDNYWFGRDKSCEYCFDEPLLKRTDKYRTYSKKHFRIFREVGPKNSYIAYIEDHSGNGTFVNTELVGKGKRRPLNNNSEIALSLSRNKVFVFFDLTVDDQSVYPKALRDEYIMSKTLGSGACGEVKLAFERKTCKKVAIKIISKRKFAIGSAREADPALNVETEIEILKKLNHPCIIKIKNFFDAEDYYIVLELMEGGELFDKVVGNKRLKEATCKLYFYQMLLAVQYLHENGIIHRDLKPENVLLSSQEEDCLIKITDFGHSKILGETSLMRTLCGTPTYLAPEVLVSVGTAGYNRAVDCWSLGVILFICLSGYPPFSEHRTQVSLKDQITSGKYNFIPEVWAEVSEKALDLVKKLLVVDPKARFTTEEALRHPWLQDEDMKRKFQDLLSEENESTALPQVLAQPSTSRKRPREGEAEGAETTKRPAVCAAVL
Procedure: as §1

[14] = molecular target: each specific kinase (kinase selectivity panel, Table 2) (Homo sapiens, UniProt O75582); details: MSK1
Procedure: as §1

[15] = molecular target: each specific kinase (kinase selectivity panel, Table 2) (Homo sapiens, UniProt P31749); details: PKBa
Procedure: as §1

[16] = molecular target: each specific kinase (kinase selectivity panel, Table 2) (Homo sapiens, UniProt Q9UHD2); details: TBK1
Procedure: as §1

[17] = molecular target: each specific kinase (kinase selectivity panel, Table 2) (Homo sapiens, UniProt Q13627); details: DYRK1A
Procedure: as §1

[18] = molecular target: each specific kinase (kinase selectivity panel, Table 2) (Homo sapiens, UniProt P43405); details: SYK
Procedure: as §1

[19] = molecular target: each specific kinase (kinase selectivity panel, Table 2) (Homo sapiens, UniProt Q96SB4); details: SRPK1
Procedure: as §1

[20] = molecular target: each specific kinase (kinase selectivity panel, Table 2) (Homo sapiens, UniProt P49841); details: GSK3b
Procedure: as §1

[21] = molecular target: each specific kinase (kinase selectivity panel, Table 2) (Homo sapiens, UniProt P48730); details: CK1
Procedure: as §1

[22] = molecular target: each specific kinase (kinase selectivity panel, Table 2) (Homo sapiens, UniProt O15530); details: PDK1
Procedure: as §1

[23] = molecular target: each specific kinase (kinase selectivity panel, Table 2) (Homo sapiens, UniProt P54753); details: EPH-B3
Procedure: as §1

[24] = molecular target: each specific kinase (kinase selectivity panel, Table 2) (Homo sapiens, UniProt Q06187); details: BTK
Procedure: as §1

[25] = molecular target: each specific kinase (kinase selectivity panel, Table 2) (Homo sapiens, UniProt Q9HC98); details: NEK6
Procedure: as §1

[26] = molecular target: each specific kinase (kinase selectivity panel, Table 2) (Homo sapiens, UniProt Q15303); details: HER4
Procedure: as §1

[27] = molecular target: each specific kinase (kinase selectivity panel, Table 2) (Homo sapiens, UniProt P41240); details: CSK
Procedure: as §1

[28] = molecular target: each specific kinase (kinase selectivity panel, Table 2) (Homo sapiens, UniProt P29317); details: EPH-A2
Procedure: as §1

[29] = molecular target: each specific kinase (kinase selectivity panel, Table 2) (Homo sapiens, UniProt O14965); details: Aurora A
Procedure: as §1

[30] = molecular target: each specific kinase (kinase selectivity panel, Table 2) (Homo sapiens, UniProt Q12851); details: GCK
Procedure: as §1

[31] = molecular target: each specific kinase (kinase selectivity panel, Table 2) (Homo sapiens, UniProt P23443); details: S6K1
Chain of each specific kinase (kinase selectivity panel, Table 2) (Homo sapiens, UniProt P23443) (P23443 whole entry): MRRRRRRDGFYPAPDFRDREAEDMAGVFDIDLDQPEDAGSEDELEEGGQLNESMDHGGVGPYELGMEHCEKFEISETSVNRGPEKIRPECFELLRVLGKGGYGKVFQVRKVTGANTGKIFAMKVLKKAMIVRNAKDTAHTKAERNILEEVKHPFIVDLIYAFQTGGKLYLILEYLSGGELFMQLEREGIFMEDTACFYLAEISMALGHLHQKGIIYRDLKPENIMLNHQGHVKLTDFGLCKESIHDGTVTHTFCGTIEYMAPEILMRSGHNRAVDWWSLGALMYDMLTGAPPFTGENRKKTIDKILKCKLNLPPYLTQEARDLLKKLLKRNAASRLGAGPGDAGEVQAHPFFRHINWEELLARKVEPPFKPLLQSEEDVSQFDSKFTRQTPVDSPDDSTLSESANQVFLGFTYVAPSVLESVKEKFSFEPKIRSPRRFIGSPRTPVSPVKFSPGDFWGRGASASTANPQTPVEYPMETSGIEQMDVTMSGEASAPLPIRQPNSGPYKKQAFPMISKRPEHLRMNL
Procedure: as §1

[32] = molecular target: each specific kinase (kinase selectivity panel, Table 2) (Homo sapiens, UniProt Q96RR4); details: CAMKKb
Procedure: as §1

[33] = molecular target: each specific kinase (kinase selectivity panel, Table 2) (Homo sapiens, UniProt O00141); details: SGK1
Chain of each specific kinase (kinase selectivity panel, Table 2) (Homo sapiens, UniProt O00141) (O00141 whole entry): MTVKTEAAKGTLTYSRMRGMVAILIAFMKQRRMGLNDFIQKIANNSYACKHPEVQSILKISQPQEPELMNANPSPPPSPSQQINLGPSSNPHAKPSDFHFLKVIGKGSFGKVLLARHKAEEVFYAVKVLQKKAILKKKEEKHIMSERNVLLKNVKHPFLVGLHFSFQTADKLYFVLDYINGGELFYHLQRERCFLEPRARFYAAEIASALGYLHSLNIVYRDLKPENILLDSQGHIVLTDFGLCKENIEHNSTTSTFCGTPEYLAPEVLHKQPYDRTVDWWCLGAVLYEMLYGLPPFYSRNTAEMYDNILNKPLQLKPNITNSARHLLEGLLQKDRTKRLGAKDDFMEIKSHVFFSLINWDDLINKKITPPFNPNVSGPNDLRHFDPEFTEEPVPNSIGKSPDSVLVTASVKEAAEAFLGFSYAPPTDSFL
Procedure: as §1

[34] = molecular target: each specific kinase (kinase selectivity panel, Table 2) (Homo sapiens, UniProt Q16584); details: MLK3
Procedure: as §1

Chain of each specific kinase (kinase selectivity panel, Table 2) (Homo sapiens, UniProt O43318) (O43318 whole entry): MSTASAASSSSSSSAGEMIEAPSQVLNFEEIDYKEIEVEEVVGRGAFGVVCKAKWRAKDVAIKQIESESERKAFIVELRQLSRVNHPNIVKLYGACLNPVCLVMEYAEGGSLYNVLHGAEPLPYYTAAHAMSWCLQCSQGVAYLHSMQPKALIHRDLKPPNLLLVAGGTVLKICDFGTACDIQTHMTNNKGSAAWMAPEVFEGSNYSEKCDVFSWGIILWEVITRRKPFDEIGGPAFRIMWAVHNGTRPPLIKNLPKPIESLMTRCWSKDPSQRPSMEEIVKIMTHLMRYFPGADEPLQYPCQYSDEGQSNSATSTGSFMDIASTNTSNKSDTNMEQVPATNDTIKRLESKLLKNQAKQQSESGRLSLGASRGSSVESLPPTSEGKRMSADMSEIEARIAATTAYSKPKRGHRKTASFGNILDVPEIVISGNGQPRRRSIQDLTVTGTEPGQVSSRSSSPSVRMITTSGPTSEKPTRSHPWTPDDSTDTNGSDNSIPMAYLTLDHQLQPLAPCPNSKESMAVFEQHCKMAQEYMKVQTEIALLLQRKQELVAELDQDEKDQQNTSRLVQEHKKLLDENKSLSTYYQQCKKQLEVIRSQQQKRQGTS

| Compound | percentage inhibition of TAK1 [1] | percentage inhibition of JAK2 [2] | percentage inhibition of IRAK4 [3] | percentage inhibition of PAK4 [4] | percentage inhibition of IR [5] | percentage inhibition of HIPK2 [6] | percentage inhibition of MLK1 [7] | percentage inhibition of Src [8] | percentage inhibition of TrkA [9] | percentage inhibition of IRR [10] | percentage inhibition of MST2 [11] | percentage inhibition of MELK [12] | percentage inhibition of CHK2 [13] | percentage inhibition of MSK1 [14] | percentage inhibition of PKBa [15] | percentage inhibition of TBK1 [16] | percentage inhibition of DYRK1A [17] | percentage inhibition of SYK [18] | percentage inhibition of SRPK1 [19] | percentage inhibition of GSK3b [20] | other results |
| --- | --- | --- | --- | --- | --- | --- | --- | --- | --- | --- | --- | --- | --- | --- | --- | --- | --- | --- | --- | --- | --- |
| CC[C@H](C)Oc1nccc2[nH]nc(C)c12 [Example 121, 4-((S)-sec-Butoxy)-3-methyl-1H-pyrazolo[4,3-c]pyridine] | 72 percentage | 47 percentage | 12 percentage | 26 percentage | 8 percentage | 0 percentage | 19 percentage | 0 percentage | 26 percentage | 22 percentage | 55 percentage | 61 percentage | 13 percentage | 48 percentage | 19 percentage | 6 percentage | 27 percentage | 0 percentage | 21 percentage | 25 percentage | percentage inhibition of CK1 [21]: 31 percentage; percentage inhibition of PDK1 [22]: 13 percentage; percentage inhibition of EPH-B3 [23]: 6 percentage; percentage inhibition of BTK [24]: 0 percentage; percentage inhibition of NEK6 [25]: 6 percentage; percentage inhibition of HER4 [26]: 0 percentage; percentage inhibition of CSK [27]: 6 percentage; percentage inhibition of EPH-A2 [28]: 8 percentage; percentage inhibition of Aurora A [29]: 46 percentage; percentage inhibition of GCK [30]: 68 percentage; percentage inhibition of S6K1 [31]: 0 percentage; percentage inhibition of CAMKKb [32]: 12 percentage; percentage inhibition of SGK1 [33]: 23 percentage; percentage inhibition of MLK3 [34]: 23 percentage |
| O=C(CCc1n[nH]c2ccnc(NC3CCCCC3)c12)N1CCC[C@H](c2ccccc2)C1 [Example 172, 3-(4-Cyclohexylamino-1H-pyrazolo[4,3-c]pyridin-3-yl)-1-((R)-3-phenyl-piperidin-1-yl)-propan-1-one] | 9 percentage | 12 percentage | 0 percentage | 24 percentage | 4 percentage | 0 percentage | 13 percentage | 6 percentage | 5 percentage | 15 percentage | 10 percentage | 5 percentage | 40 percentage | 1 percentage | 0 percentage | 14 percentage | 27 percentage | 4 percentage | 17 percentage | 5 percentage | percentage inhibition of CK1 [21]: 6 percentage; percentage inhibition of PDK1 [22]: 0 percentage; percentage inhibition of EPH-B3 [23]: 3 percentage; percentage inhibition of BTK [24]: 12 percentage; percentage inhibition of NEK6 [25]: 1 percentage; percentage inhibition of HER4 [26]: 10 percentage; percentage inhibition of CSK [27]: 11 percentage; percentage inhibition of EPH-A2 [28]: 0 percentage; percentage inhibition of Aurora A [29]: 0 percentage; percentage inhibition of GCK [30]: 19 percentage; percentage inhibition of S6K1 [31]: 14 percentage; percentage inhibition of CAMKKb [32]: 21 percentage; percentage inhibition of SGK1 [33]: 1 percentage; percentage inhibition of MLK3 [34]: 29 percentage |

Source: patent US20170320870A1 (Medical Research Council Technology, priority 2009, published 2017)
